Experimental data published in US6031071A, “Methods of generating novel peptides” (Biophage, Inc., priority 1996, dated 2000).
Entries after “also recorded” stand apart in the source; their conditions may differ.

Experiments:
[1] = target: phage V6 (peptide V6) binding to doxorubicin; assay: Displacement assay: inhibition of V6 phage binding to doxorubicin-BSA coated wells by drugs; settings: for IC50: read-out: IC50 for inhibiting the binding of phages V6 to doxorubicin; for blocking/displacement of the interaction of the phage with doxorubicin: result in words
Protocol: Phage V6 (10^10 virions) was preincubated for 1 hr at room temperature in 100 μl of 0.1% BSA/PBS buffer containing different drug concentrations (10^-4 M to 10^-9 M), and aliquots were added to microtiter wells, which were […] with doxorubicin-BSA as previously described in Example II. After a 1-h incubation at room temperature, the wells were washed 12 times with PBS and the remaining bound phages eluted with 50 μl of 0.1 M HCl (pH adjusted to 2.2 with glycine). The phages were quantitated by titration on log phase of E. coli K91Kan cells plated on LB plates with […] tetracycline (Parmley & Smith, Gene, 73: 305-318 (1988)).

[2] = ELISA of phage binding to immobilized doxo-BSA, detected with polyclonal anti-phage serum; settings: result in words
Protocol: In order to characterize the binding of individual clones, four different clones V6, V10, V12 and A4 together with the control phage X1 were analyzed for binding to doxorubicin in an ELISA experiment in which polyclonal anti-phage antibodies were used to detect bound phages. Antisera were raised against fd-Tet phage lacking insertion into pIII. Three rabbits were injected intramuscularly with 0.5 mg of fd-ted phages in Freunds complete adjuvant and then boosted three times with 0.25 mg of fd-ted phages in incomplete adjuvant at 3 weeks intervals. The titer of the antisera was measured with an ELISA using phage immobilized in Maxisorb microtiter wells as described (Motti et al., Gene, 146: 91-198 (1994)). All rabbits produced high titer antisera after the second boost. […]
Phages from the second PEG precipitation (Parmley & Smith, Gene, 73: 305-318 (1988)) were dissolved in 210 μl of 0.15 M NaCl, microfuged for 1 min, precipitated from 200 μl of the supernatant by the addition of 21.2 μl of 1 M acetic acid, and by incubation for 10 min at room temperature and 10 min on ice. […] Phage concentration was determined as described in Parmley & Smith, Gene, 73: 305-318 (1988). […] To reveal the reaction, 100 μl of ABTS solution (Kirkegaard & Perry Labs, Maryland, USA) were added, incubated for 30 min at room temperature, and read in a microplate reader. […]

[3] = ELISA control empty wells (plastic binding)
Protocol: Phages from the second PEG precipitation (Parmley & Smith, Gene, 73: 305-318 (1988)) were dissolved in 210 μl of 0.15 M NaCl, microfuged for 1 min, precipitated from 200 μl of the supernatant by the addition of 21.2 μl of 1 M acetic acid, and by incubation for 10 min at room temperature and 10 min on ice. (Scott & Smith, Science, 249: 386-390 (1990)). Phages were sedimented (microfuged, 45 min, 4 C.) and dissolved in 60 μl of TBS. Phage concentration was determined as described in Parmley & Smith, Gene, 73: 305-318 (1988). These partially purified phages were subjected to one round of screening, except that the phages were not acid eluted. Instead, blocking solution [250 μl of nonfat dry milk ([…]) in 0,05% TWEEN20 ™/TBS (TWEEN20 ™: Polysorbate 20)] was added to the wells. After a 2-h incubation at room temperature, wells were washed three times in 0.05% TWEEN20 ™/TBS. Rabbit anti-phage fd-ted serum, 100 μl of a 1:1000 dilution (in blocking solution) was added to wells and incubated overnight. Wells were washed seven times in 0.05% TWEEN20 ™/TBS and once with TBS; 100 μl of a peroxidase-conjugated goat anti-rabbit immunoglobulin were then added (Kirkegaard & Perry Labs, Maryland, USA, diluted 1:1000). […] To reveal the reaction, 100 μl of ABTS solution (Kirkegaard & Perry Labs, Maryland, USA) were added, incubated for 30 min at room temperature, and read in a microplate reader. […]

[4] = phage V6 10^10 virions preincubated 1 hr with drug 10^-4 M to 10^-9 M, doxorubicin-BSA coated wells

Compound: Nc1ccn([C@@H]2O[C@H](CO)[C@@H](O)[C@@H]2O)c(=O)n1 [Ara-C]
- IC50 for inhibiting the binding of phages V6 to doxorubicin [1, 4]: essentially inactive

Compound: COc1cccc2c1C(=O)c1c(O)c3c(c(O)c1C2=O)C[C@@](O)(C(=O)CO)C[C@@H]3O[C@H]1C[C@H](N)[C@H](O)[C@H](C)O1 [doxorubicin]
- IC50 [1, 4]: 4.5 nM
- blocking/displacement of the interaction of the phage with doxorubicin [1]: could be blocked

Compound: CC[C@]1(O)C[C@@H]2CN(CCc3c([nH]c4ccccc34)[C@@](C(=O)OC)(c3cc4c(cc3OC)N(C)[C@H]3[C@@](O)(C(=O)OC)[C@H](OC(C)=O)[C@]5(CC)C=CCN6CC[C@]43[C@@H]65)C2)C1 [vinblastine]
- IC50 [1, 4]: 1.5 nM
- blocking/displacement of the interaction of the phage with doxorubicin [1]: displaced; also recorded: could be blocked

Compound: VCDWWGWGIC [phage V6]
- binding of display phage to doxorubicin (ELISA, OD405) [2]: strong specific binding
- binding of phage to plastic [3]: only background binding
